Measured values published in ChEMBL document CHEMBL4265948, “A cardiac glycoside HTF-1 isolated from Helleborus thibetanus Franch displays potent in vitro anti-cancer activity via caspase-9, MAPK and PI3K-Akt-mTOR pathways” (Eur J Med Chem, 2018).
Calls of active or inactive are those of the source. No cut-off for these calls is given here.

Assays:
HepG2 [1] = assay: Cytotoxicity activity against human HepG2 cells after 48 hrs by MTT assay; type: functional, cell-based; settings: HepG2, 48 h
MCF7 [2] = assay: Cytotoxicity activity against human MCF7 cells after 24 hrs by MTT assay; type: functional, cell-based; settings: MCF7, 24 h
HeLa [3] = assay: Induction of apoptosis in human HeLa cells assessed as necrotic cells at 100 nM after 24 hrs by Annexin-V-FITC/propidium iodide staining based flow cytometry (reference value: 0.031%); type: functional
HeLa [4] = assay: Down regulation of survivin expression in human HeLa cells at 50 to 200 nM after 24 hrs by Western blot analysis; type: functional, cell-based
HeLa [5] = assay: Induction of double strand breaks in human HeLa cells assessed as increase in phospho-gammaH2AX expression at 50 to 200 nM after 24 hrs by Western blot analysis; type: functional, cell-based
HeLa [6] = assay: Cytotoxicity activity against human HeLa cells after 24 hrs by MTT assay; type: functional, cell-based
HeLa [7] = assay: Induction of apoptosis in human HeLa cells assessed as necrotic cells at 500 nM after 24 hrs by Annexin-V-FITC/propidium iodide staining based flow cytometry (reference value: 0.031%); type: functional
HeLa [8] = assay: Induction of morphological changes in human HeLa cells assessed as thinner microvilli at 200 to 500 nM after 24 hrs by scanning electron microscopic analysis; type: functional, cell-based
HeLa [9] = assay: Induction of apoptosis in human HeLa cells assessed as early apoptotic cells at 500 nM after 24 hrs by Annexin-V-FITC/propidium iodide staining based flow cytometry (reference value: 3.08%); type: functional
HeLa [10] = assay: Cell cycle arrest in human HeLa cells assessed as accumulation at sub-G1 phase at 200 nM after 24 hrs by propidium iodide staining based flow cytometry; type: functional
[11] = molecular target: Mitogen-activated protein kinase; ERK1/ERK2 (Homo sapiens) (UniProt P27361+P28482); assay: Inhibition of ERK1/2 phosphorylation in human HeLa cells at 50 to 200 nM after 24 hrs by Western blot analysis; type: cell-based
Sequence of Mitogen-activated protein kinase; ERK1/ERK2 (Homo sapiens) (P27361 whole entry, looked up): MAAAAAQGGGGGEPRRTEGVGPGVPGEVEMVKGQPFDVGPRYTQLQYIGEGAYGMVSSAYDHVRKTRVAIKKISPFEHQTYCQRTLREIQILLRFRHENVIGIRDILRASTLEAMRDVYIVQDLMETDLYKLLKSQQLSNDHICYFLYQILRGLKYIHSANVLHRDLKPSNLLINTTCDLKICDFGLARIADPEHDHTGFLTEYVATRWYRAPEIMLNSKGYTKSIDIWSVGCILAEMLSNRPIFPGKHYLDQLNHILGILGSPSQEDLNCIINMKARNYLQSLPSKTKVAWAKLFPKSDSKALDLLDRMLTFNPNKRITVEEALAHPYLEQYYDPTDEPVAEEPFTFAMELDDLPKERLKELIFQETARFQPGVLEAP
Sequence of Mitogen-activated protein kinase; ERK1/ERK2 (Homo sapiens) (P28482 whole entry, looked up): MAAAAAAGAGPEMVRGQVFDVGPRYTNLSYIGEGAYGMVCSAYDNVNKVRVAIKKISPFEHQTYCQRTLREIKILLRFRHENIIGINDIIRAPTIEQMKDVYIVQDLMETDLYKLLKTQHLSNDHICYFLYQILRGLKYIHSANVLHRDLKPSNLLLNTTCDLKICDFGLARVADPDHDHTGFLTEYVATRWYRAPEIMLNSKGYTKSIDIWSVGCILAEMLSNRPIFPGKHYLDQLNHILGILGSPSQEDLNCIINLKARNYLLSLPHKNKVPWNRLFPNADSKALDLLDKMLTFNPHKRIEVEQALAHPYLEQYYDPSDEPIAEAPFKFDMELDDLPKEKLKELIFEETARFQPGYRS

HeLa [12] = assay: Induction of morphological changes in human HeLa cells assessed as formation of apoptotic bodies at 200 to 500 nM after 24 hrs by scanning electron microscopic analysis; type: functional, cell-based
[13] = molecular target: MAP kinase p38 (Homo sapiens) (UniProt O15264+Q15759+Q16539+P53778); assay: Effect on p38 phosphorylation in human HeLa cells at 50 to 200 nM after 24 hrs by Western blot analysis; type: cell-based
HeLa [14] = assay: Induction of apoptosis in human HeLa cells assessed as early apoptotic cells at 100 nM after 24 hrs by Annexin-V-FITC/propidium iodide staining based flow cytometry (reference value: 3.08%); type: functional
[15] = molecular target: RAC-alpha serine/threonine-protein kinase (Homo sapiens) (UniProt P31749); assay: Inhibition of AKT phosphorylation in human HeLa cells after 24 hrs by Western blot analysis; type: cell-based
Sequence of RAC-alpha serine/threonine-protein kinase (Homo sapiens) (P31749 whole entry): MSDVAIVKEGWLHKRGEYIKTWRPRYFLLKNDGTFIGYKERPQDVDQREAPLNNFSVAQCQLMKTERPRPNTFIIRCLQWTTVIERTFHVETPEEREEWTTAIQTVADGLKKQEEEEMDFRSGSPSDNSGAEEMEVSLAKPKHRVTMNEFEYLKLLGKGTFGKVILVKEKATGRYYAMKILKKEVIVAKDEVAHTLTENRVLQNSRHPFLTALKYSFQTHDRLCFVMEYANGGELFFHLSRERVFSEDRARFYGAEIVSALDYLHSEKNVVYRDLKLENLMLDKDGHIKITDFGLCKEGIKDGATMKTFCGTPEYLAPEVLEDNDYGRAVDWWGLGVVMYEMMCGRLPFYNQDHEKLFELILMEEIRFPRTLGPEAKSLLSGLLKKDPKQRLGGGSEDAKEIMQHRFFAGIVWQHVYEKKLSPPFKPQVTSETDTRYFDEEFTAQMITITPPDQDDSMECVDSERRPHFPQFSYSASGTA

HeLa [16] = assay: Induction of morphological changes in human HeLa cells assessed as wizened nucleus at 200 to 500 nM after 24 hrs by Hoechst 33342 staining based fluorescence microscopic analysis; type: functional, cell-based
HeLa [17] = assay: Cytotoxicity activity against human HeLa cells after 48 hrs by MTT assay; type: functional, cell-based
HeLa [18] = assay: Inhibition of colony formation in human HeLa cells assessed as reduction in colony size at 50 nM after 24 hrs by crystal violet staining based microscopic analysis; type: functional, cell-based
HeLa [19] = assay: Induction of apoptosis in human HeLa cells assessed as cleaved caspase-9 expression at 50 to 200 nM after 24 hrs by Western blot analysis; type: functional, cell-based
HeLa [20] = assay: Induction of apoptosis in human HeLa cells assessed as early apoptotic cells at 200 nM after 24 hrs by Annexin-V-FITC/propidium iodide staining based flow cytometry (reference value: 3.08%); type: functional
HeLa [21] = assay: Induction of apoptosis in human HeLa cells assessed as late apoptotic cells at 500 nM after 24 hrs by Annexin-V-FITC/propidium iodide staining based flow cytometry (reference value: 11.1%); type: functional
HeLa [22] = assay: Down regulation of Bcl2 expression in human HeLa cells at 50 to 200 nM after 24 hrs by Western blot analysis; type: functional, cell-based
HeLa [23] = assay: Induction of apoptosis in human HeLa cells assessed as cleaved caspase-3 expression at 50 to 200 nM after 24 hrs by Western blot analysis; type: functional, cell-based
HeLa [24] = assay: Antiproliferative activity against human HeLa cells assessed as inhibition of cell proliferation at 100 to 200 nM after 24 hrs by Ki-67/Hoechst 33342 staining based fluorescence microscopic analysis; type: functional
HeLa [25] = assay: Induction of morphological changes in human HeLa cells assessed as cell shrinkage at 200 to 500 nM after 24 hrs by bright field microscopic analysis; type: functional, cell-based
HeLa [26] = assay: Antiinvasive activity in human HeLa cells at 50 nM after 48 hrs by crystal violet staining based microscopic analysis; type: functional, cell-based
HeLa [27] = assay: Induction of morphological changes in human HeLa cells assessed as protrusions in cell membrane at 200 to 500 nM after 24 hrs by scanning electron microscopic analysis; type: functional, cell-based
HeLa [28] = assay: Induction of morphological changes in human HeLa cells assessed as cell membrane blebbing at 200 to 500 nM after 24 hrs by scanning electron microscopic analysis; type: functional, cell-based
MCF7 [29] = assay: Cytotoxicity activity against human MCF7 cells after 48 hrs by MTT assay; type: functional, cell-based; settings: MCF7, 48 h
[30] = molecular target: Ribosomal protein S6 kinase (Homo sapiens) (UniProt P51812+Q9UBS0+O75676+Q15349+O75582+P23443+Q9UK32+Q15418); assay: Inhibition of p70S6K phosphorylation in human HeLa cells after 24 hrs by Western blot analysis; type: cell-based
HeLa [31] = assay: Inhibition of colony formation in human HeLa cells at 50 nM after 24 hrs by crystal violet staining based microscopic analysis; type: functional, cell-based
HeLa [32] = assay: Cell cycle arrest in human HeLa cells assessed as accumulation at S phase at 200 nM after 24 hrs by propidium iodide staining based flow cytometry relative to control; type: functional
HeLa [33] = assay: Induction of morphological changes in human HeLa cells assessed as impaired cell adhesion at 200 to 500 nM after 24 hrs by bright field microscopic analysis; type: functional, cell-based
HeLa [34] = assay: Induction of apoptosis in human HeLa cells assessed as late apoptotic cells at 100 nM after 24 hrs by Annexin-V-FITC/propidium iodide staining based flow cytometry (reference value: 11.1%); type: functional
HeLa [35] = assay: Induction of apoptosis in human HeLa cells assessed as viable cells at 200 nM after 24 hrs by Annexin-V-FITC/propidium iodide staining based flow cytometry (reference value: 85.8%); type: functional; settings: read-out: Activity
HeLa [36] = assay: Induction of apoptosis in human HeLa cells assessed as late apoptotic cells at 200 nM after 24 hrs by Annexin-V-FITC/propidium iodide staining based flow cytometry (reference value: 11.1%); type: functional
HeLa [37] = assay: Induction of morphological changes in human HeLa cells assessed as increase in floating round cells at 200 to 500 nM after 24 hrs by bright field microscopic analysis; type: functional, cell-based
L02 = assay: Cytotoxicity activity against human LO2 cells after 24 to 48 hrs by MTT assay; type: cell-based
[38] = molecular target: c-Jun N-terminal kinase, JNK (Homo sapiens) (UniProt P45983+P53779+P45984); assay: Activation of JNK phosphorylation in human HeLa cells after 24 hrs by Western blot analysis; type: cell-based
HepG2 [39] = assay: Cytotoxicity activity against human HepG2 cells after 24 hrs by MTT assay; type: functional, cell-based; settings: HepG2, 24 h
HeLa [40] = assay: Induction of apoptosis in human HeLa cells assessed as viable cells at 500 nM after 24 hrs by Annexin-V-FITC/propidium iodide staining based flow cytometry (reference value: 85.8%); type: functional; settings: read-out: Activity
HeLa [41] = assay: Cell cycle arrest in human HeLa cells assessed as accumulation at S phase at 100 nM after 24 hrs by propidium iodide staining based flow cytometry; type: functional
HeLa [42] = assay: Down regulation of FEN1 expression in human HeLa cells at 50 to 200 nM after 24 hrs by Western blot analysis; type: functional, cell-based
HeLa [43] = assay: Induction of morphological changes in human HeLa cells assessed as chromatin condensation at 200 to 500 nM after 24 hrs by Hoechst 33342 staining based fluorescence microscopic analysis; type: functional, cell-based
HeLa [44] = assay: Induction of morphological changes in human HeLa cells assessed as DNA fragmentation at 200 to 500 nM after 24 hrs by Hoechst 33342 staining based fluorescence microscopic analysis; type: functional, cell-based
HeLa [45] = assay: Induction of apoptosis in human HeLa cells assessed as necrotic cells at 200 nM after 24 hrs by Annexin-V-FITC/propidium iodide staining based flow cytometry (reference value: 0.031%); type: functional
HeLa [46] = assay: Induction of apoptosis in human HeLa cells assessed as […] in cleaved PARP expression at 50 to 200 nM after 24 hrs by Western blot analysis; type: functional, cell-based
HeLa [47] = assay: Induction of morphological changes in human HeLa cells assessed as cell shrinkage at 200 to 500 nM after 24 hrs by scanning electron microscopic analysis; type: functional, cell-based
HeLa [48] = assay: Antimigratory activity in human HeLa cells at 25 to 50 nM after 24 to 48 hrs by wound healing assay; type: functional, cell-based
HeLa [49] = assay: Induction of apoptosis in human HeLa cells assessed as viable cells at 100 nM after 24 hrs by Annexin-V-FITC/propidium iodide staining based flow cytometry (reference value: 85.8%); type: functional; settings: read-out: Activity
[50] = molecular target: Serine/threonine-protein kinase mTOR (Homo sapiens) (UniProt P42345); assay: Inhibition of mTOR phosphorylation in human HeLa cells after 24 hrs by Western blot analysis; type: cell-based
HeLa [51] = assay: Induction of apoptosis in human HeLa cells assessed as cleaved caspase-7 expression at 50 to 200 nM after 24 hrs by Western blot analysis; type: functional, cell-based
HeLa [52] = assay: Antiproliferative activity against human HeLa cells assessed as inhibition of cell proliferation at 100 to 200 nM after 24 hrs by Edu/Hoechst 33342 staining based fluorescence microscopic analysis; type: functional
HeLa [53] = assay: Inhibition of PI3K phosphorylation in human HeLa cells after 24 hrs by Western blot analysis; type: cell-based

SMILES: C[C@]12CC[C@H](O[C@@H]3C[C@H](CO)[C@@H](O)[C@H](O)[C@H]3O)C[C@@H]1CC[C@@H]1[C@@H]2CC[C@]2(C)[C@@H](c3ccc(=O)oc3)[C@@H](O)C[C@]12O
- IC50 (HepG2 [1]): 0.221 µM
- IC50 (MCF7 [2]): 1.02 µM
- Activity (HeLa [3]): 0.062%
- Activity (HeLa [4]): Active
- Activity (HeLa [5]): Active
- IC50 (HeLa [6]): 0.546 µM
- Activity (HeLa [7]): 0.56%
- Activity (HeLa [8]): Active
- Activity (HeLa [9]): 36%
- Activity (HeLa [10]): Active
- inhibition [11]: Active
- Activity (HeLa [12]): Active
- Activity [13]: inactive
- Activity (HeLa [14]): 10.2%
- inhibition [15]: Dose-dependent effect
- Activity (HeLa [16]): Active
- IC50 (HeLa [17]): 0.158 µM
- inhibition (HeLa [18]): Active
- Activity (HeLa [19]): Active
- Activity (HeLa [20]): 38.3%
- Activity (HeLa [21]): 16.6%
- Activity (HeLa [22]): Active
- Activity (HeLa [23]): Active
- inhibition (HeLa [24]): Active
- Activity (HeLa [25]): Active
- Activity (HeLa [26]): Active
- Activity (HeLa [27]): Active
- Activity (HeLa [28]): Active
- IC50 (MCF7 [29]): 0.239 µM
- inhibition [30]: Dose-dependent effect
- inhibition (HeLa [31]): Active
- Activity (HeLa [32]): 73%
- Activity (HeLa [33]): Active
- Activity (HeLa [34]): 7.28%
- viability at 0.2 µM (HeLa [35]): 52.9%
- Activity (HeLa [36]): 8.67%
- Activity (HeLa [37]): Active
- Activity (L02): Non-Toxic
- Activity [38]: Active
- IC50 (HepG2 [39]): 1.41 µM
- viability at 0.5 µM (HeLa [40]): 46.9%
- Activity (HeLa [41]): Active
- Activity (HeLa [42]): Active
- Activity (HeLa [43]): Active
- Activity (HeLa [44]): Active
- Activity (HeLa [45]): 0.1%
- Activity (HeLa [46]): Active
- Activity (HeLa [47]): Active
- Activity (HeLa [48]): Active
- viability at 0.1 µM (HeLa [49]): 82.5%
- inhibition [50]: Dose-dependent effect
- Activity (HeLa [51]): Active
- inhibition (HeLa [52]): Active
- inhibition (HeLa [53]): Dose-dependent effect

SMILES: C[C@]12CC[C@H](O)C[C@H]1CC[C@@H]1[C@@H]2CC[C@]2(C)[C@@H](c3ccc(=O)oc3)CC[C@]12O [BUFALIN]
- IC50 (HeLa [6]): 0.594 µM
- IC50 (HeLa [17]): 0.28 µM
- Activity (HeLa [20]): 30.9%
- viability at 0.2 µM (HeLa [35]): 53.3%
- Activity (HeLa [36]): 13.9%
- Activity (HeLa [45]): 1.86%
